From ChEMBL document CHEMBL6134877, “Innovative Approaches in Psychedelics, AI, and Communication: A Multi-Domain Perspective” (ACS Med Chem Lett, 2025) come the findings set out here.

What all share (assay type): ADME, organism-based
A short description of series [1]: AUC (infinity) in brain of male C57BL6 mouse at 3 mg/kg, po.
A short description of series [2]: AUClast in plasma of male C57BL6 mouse at 3 mg/kg, po.
Series [3] in a line: Cmax in brain of male C57BL6 mouse at 3 mg/kg, po.
Series [4] is described as follows: Tmax in plasma of male C57BL6 mouse at 3 mg/kg, po.
Series [5] in a line: Half life in plasma of male C57BL6 mouse at 3 mg/kg, po.
The nature of series [6]: Half life in brain of male C57BL6 mouse at 3 mg/kg, po.
Series [7] can be described thus: AUC (infinity) in plasma of male C57BL6 mouse at 3 mg/kg, po.
The nature of series [8]: Cmax in plasma of male C57BL6 mouse at 3 mg/kg, po.
Series [9] is described as follows: Tmax in brain of male C57BL6 mouse at 3 mg/kg, po.
Series [10] is described as follows: AUClast in brain of male C57BL6 mouse at 3 mg/kg, po.

For `CCCOc1cc(CCN)c(OC)cc1Br`, the AUC(0-inf) in [1] turned out to be 6680 ng·h/mL; in series [7], 291 ng·h/mL. Moreover, the exposure AUC(0-t) in series [2] worked out at 284 ng·h/mL; in [10] it was 6480 ng·h/mL. For the same molecule, the figures for the Cmax in series [3] and in series [8] were 1850 ng/mL and 130 ng/mL, respectively. For the same molecule, the values for the Tmax in series [4] and in [9] were 0.5 h and 1 h, respectively. Moreover, the half-life is 1.44 h in series [5] and 1.29 h in series [6].
For `CN(C)CCc1c[nH]c2cccc(O)c12` [PSILOCIN], the AUC(0-inf) worked out at 4420 ng·h/mL in series [1] and 1140 ng·h/mL in series [7]. Moreover, the AUC(0-t) in series [2] was determined as 1060 ng·h/mL; in [10] it was 3600 ng·h/mL. Further, the results for the maximum concentration (Cmax) in series [3] and in series [8] were 1340 ng/mL and 878 ng/mL, respectively. The half-life in series [5] is 1.7 h; in series [6], 4.47 h. Besides, the Tmax in series [9] turned out to be 0.5 h.

Broadly, the AUC(0-inf) is the area under the concentration-time curve extrapolated to infinity. The low end stands for less exposure, the high end for more exposure. By AUC(0-t) is commonly meant exposure summed from dosing to a finite time, without extrapolation to infinity. A higher AUC(0-t) goes with high exposure. The Cmax is the maximum level reached in the sampled fluid or tissue. In general, Tmax refers to the time at which the peak concentration occurs. One may read the half-life as the time in which the quantity being followed falls by half.
